Patent publication US8435756B2, “Anionic acid-labile surfactants and methods of use” (Protea Biosciences, Inc., priority 2008, dated 2013)

What was measured:
[1] = Critical micellular concentration; assay type: physicochemical
BSA = BSA (Bos taurus, UniProt P02769); assay: Protein score from in-solution tryptic digestion of BSA (MALDI-TOF, peptide mass fingerprinting); conditions: tryptic digestion of 250 pmol BSA, 0.05% AALS-6 in digestion buffer; FIG. 2
Experimental: Protein scores from in-solution digestion of BSA in buffers containing an embodiment of an anionic acid-labile surfactant (“AALS-6”) and three commercially available acid labile surfactants are illustrated in FIG. 2. A tryptic digestion of 250 pmol BSA is performed using 0.05% AALS-6 in digestion buffer. For the other surfactants, digestion is performed according to the manufacturer's protocols. Sample clean-up and MALDI spotting is performed using C18 reversed phase tips. MALDI-TOF spectra are acquired using an ABI 4800 mass spectrometer in the reflector mode. Protein identification is accomplished through peptide mass fingerprinting (PMF) of the acquired MS spectra.
Algorithms that compare mass spectrometric data to database for protein identification compare the experimental tandem mass spectra against theoretical mass spectra from all peptides and proteins present in the databases. As an output for the database correlation analysis, a protein identification score is generated for each potential protein match. Protein matches are required to have a minimum protein score to be considered a potential positive and significant protein identification. The higher the score, the more likely that the protein identification is real and not a result of random events that match the database. […]

ovalbumin = target: T1, ovalbumin (Gallus gallus, UniProt P01012); assay: Protein score from in-solution tryptic digestion of ovalbumin (MALDI-TOF MS/MS, Mascot); conditions: tryptic digestion of 250 μmol ovalbumin; 0.05% AALS-6, other surfactants per manufacturer's protocols; FIG. 3
T1 sequence (P01012 1-386): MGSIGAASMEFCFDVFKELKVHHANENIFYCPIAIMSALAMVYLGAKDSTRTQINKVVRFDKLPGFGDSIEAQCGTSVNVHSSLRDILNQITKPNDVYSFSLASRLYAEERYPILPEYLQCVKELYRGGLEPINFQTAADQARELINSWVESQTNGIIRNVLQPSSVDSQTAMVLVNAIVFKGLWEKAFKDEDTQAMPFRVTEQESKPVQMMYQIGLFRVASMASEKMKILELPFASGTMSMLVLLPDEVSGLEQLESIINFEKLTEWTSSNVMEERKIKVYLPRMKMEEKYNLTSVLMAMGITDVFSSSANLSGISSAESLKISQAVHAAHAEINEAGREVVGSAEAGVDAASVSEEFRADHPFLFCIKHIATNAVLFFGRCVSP
Experimental: The protein scores from in-solution digestion of ovalbumin in buffers containing an embodiment of an anionic acid-labile surfactant (“AALS-6”) and three commercially available acid labile surfactants are illustrated in FIG. 3. A tryptic digestion of […] ovalbumin was performed using 0.05% AALS-6 in digestion buffer. For the other surfactants, digestion was performed according to the manufacturer's protocols. Sample clean-up and MALDI spotting was performed using C18 reversed phase tips. MALDI-TOF MS and MS/MS spectra were acquired using an ABI 4800 mass spectrometer in the reflector mode. Protein identification was accomplished through database searching MS/MS spectra using Mascot search engine.
The ovalbumin control digestion score is 347. In general, the higher protein score indicates an increase in the quality and/or completeness of the digestion because more peptides are available for analysis by the mass spectrometer, and/or the quality of the digested sample delivered to the mass spectrometer is increased. […] The higher protein score of AALS-6 may also be due to its degradation kinetics. For example, once the digestion experiment is complete, the degradation of the surfactant reduces contamination of the signal by detergent molecules and by-products as well as reduces the ion suppression effects commonly seen in mass spectrometry analysis of peptides and proteins.

BSA, sequence (P02769 25-607): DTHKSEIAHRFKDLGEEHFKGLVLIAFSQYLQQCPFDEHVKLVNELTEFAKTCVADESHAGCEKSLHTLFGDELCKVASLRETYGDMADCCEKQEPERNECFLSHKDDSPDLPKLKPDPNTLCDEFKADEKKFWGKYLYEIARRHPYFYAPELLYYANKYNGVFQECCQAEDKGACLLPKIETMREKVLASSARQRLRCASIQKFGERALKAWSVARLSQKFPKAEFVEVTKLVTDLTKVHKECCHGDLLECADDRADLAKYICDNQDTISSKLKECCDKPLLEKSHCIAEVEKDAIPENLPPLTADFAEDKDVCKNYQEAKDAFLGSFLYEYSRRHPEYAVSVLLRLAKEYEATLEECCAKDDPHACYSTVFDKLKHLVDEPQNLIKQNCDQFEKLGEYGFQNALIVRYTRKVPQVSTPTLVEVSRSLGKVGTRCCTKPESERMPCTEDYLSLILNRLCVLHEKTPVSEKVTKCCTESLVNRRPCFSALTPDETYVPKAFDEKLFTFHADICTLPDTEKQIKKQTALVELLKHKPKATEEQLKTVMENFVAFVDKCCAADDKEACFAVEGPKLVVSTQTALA

| Compound | critical micellular concentration [1] [mM] | average protein score (BSA) | average protein score (ovalbumin) |
| --- | --- | --- | --- |
| CCCCCCOC(C)(COS(=O)(=O)[O-])OCCCCCC.[Na+] [AALS-6, sodium 2,2-bis(hexyloxy)propyl sulfate] | 7.7 | 93 | 487 |
| CCCCCCCCCCC(OC(=O)NCCCS(=O)(=O)[O-])c1ccco1.[Na+] (centres unmarked) [Proteamax] |  |  | 329 |
| CCCCCCCCCCCC1(C)OCC(COCCCS(=O)(=O)[O-])O1.[Na+] (centres unmarked) [Rapigest] |  |  | 341 |
